Literature values in patent US20120201889A1, “MODIFIED AND IMMEDIATE RELEASE FORMULATIONS OF MEMANTINE” (Forest Laboratories Holdings Ltd., priority 2005, published 2012).

Details: after oral administration

absolute bioavailability: approximately 100%
Compound: CC12CC3CC(C)(C1)CC(N)(C3)C2 [memantine, 1-amino-3,5-dimethyladamantane]
